# Measurements as given in US4368194A, “Pharmacologically active amine boranes” (The United States of America as represented by the …, priority 1981, dated 1983).
# Experiments:
# [1] = system: cAMP levels in PMNs; assay: Cyclic-3',5'-adenosine monophosphate levels (cAMP) in PMNs; type: cell-based; conditions: 1 h
# Summary of the method: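 Glycogen-elicited peritoneal neutrophils in MEM with 10% FCS, pH 7.4, exposed to test drugs at 5μ moles for 1 hr at 37° C; stopped with 6% trichloroacetic acid. cAMP measured by radioimmunoassay with 3H-cAMP tracer, expressed as p mole/10^7 PMNs.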
# [2] = system: liver mitochondria; assay: Oxidative phosphorylation, succinate as substrate; type: biochemical, rats; conditions: 5 μmoles
# Summary of the method: (§1)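 Basal and ADP-stimulated respiration of 10% liver homogenates, with succinate (90 μmoles) or α-ketoglutarate (60 μmoles) as substrate, in sucrose/KCl/K2HPO4 medium. Test compounds at 5 μmoles in 1% CMC in 1.8 ml total. Rate given as μl O2 consumed/hr/mg wet liver weight.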
# [3] = system: CF1 male mice; assay: Writhing reflex (acetic acid); type: in vivo
# Summary of the method: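 CF1 male mice were dosed with test drug at 20 mg/kg i.p. 20 min before 0.5 ml of 0.6% acetic acid. Abdominal stretches with hind-limb extension were counted over 10 min, starting 5 min after acid.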
# [4] = system: Cathepsin; assay: Lysosomal free cathepsin activity, PMNs; type: cell-based; conditions: 5 μmoles, in vitro; 60 min
# Summary of the method: (§2)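 Glycogen-elicited peritoneal PMNs, or liver homogenate, incubated with 5 μmoles test drug in 1% CMC for 60 or 20 min at pH 5.0. Acid phosphatase: 0.1 M β-glycerol phosphate, inorganic phosphate read; cathepsin: 2% azocasein, acid-soluble peptides at 366 nm. Free activity expressed as percent of detergent-released total.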
# [5] = system: Sprague Dawley rats; assay: Anti-pyretic screen; type: in vivo
# Description: Sprague Dawley rats (about 200 g) were administered 2 ml of a 44% solution of Baker's yeast subcutaneously (see Roszkowski et al., supra) 18 hr prior to the injection of drugs at 2.5 or 5 mg/kg intraperitoneally resulting in an elevation of 3.46° F. Alternatively, rats were administered 0.25 mg killed and dried Mycobacterium butyricum (Difco) (see Randall et al., Arch int Pharmacodyn et De Ther, 220, 94 1976) subcutaneously prior to the administration of drugs. Rectal temperatures were taken immediately prior to and 2, 4, and 6 hr after drug administration.
# [6] = system: Acid phosphatase; assay: Lysosomal free acid phosphatase activity, liver homogenate; type: biochemical, rats; conditions: 5 μmoles, in vitro; 20 min
# Summary of the method: (§3)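 Rat (Sprague Dawley) liver 10% homogenate in 0.25 M sucrose/0.001 M EDTA pH 7.2, incubated 20 min with 5 μmoles test drug in 1% CMC. Acid phosphatase: 0.1 M β-glycerol phosphate, acetate pH 5.0, inorganic phosphate read; cathepsin: 2% azocasein, pH 5.0, acid-soluble fragments at 366 nm. Percent free activity vs. total (0.02% detergent-released).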
# [7] = system: liver mitochondria; assay: Oxidative phosphorylation, α-ketoglutarate as substrate; type: biochemical, rats; conditions: 5 μmoles
# Summary of the method: as §1
# [8] = target: T1, prostaglandin synthetase from beef seminal vesicle (Bos taurus, UniProt O62664); assay: Prostaglandin synthetase activity; type: biochemical; conditions: 10^-6 M
# T1 construct: purchased; host or cells: beef seminal vesicle
# T1 sequence (O62664 25-600): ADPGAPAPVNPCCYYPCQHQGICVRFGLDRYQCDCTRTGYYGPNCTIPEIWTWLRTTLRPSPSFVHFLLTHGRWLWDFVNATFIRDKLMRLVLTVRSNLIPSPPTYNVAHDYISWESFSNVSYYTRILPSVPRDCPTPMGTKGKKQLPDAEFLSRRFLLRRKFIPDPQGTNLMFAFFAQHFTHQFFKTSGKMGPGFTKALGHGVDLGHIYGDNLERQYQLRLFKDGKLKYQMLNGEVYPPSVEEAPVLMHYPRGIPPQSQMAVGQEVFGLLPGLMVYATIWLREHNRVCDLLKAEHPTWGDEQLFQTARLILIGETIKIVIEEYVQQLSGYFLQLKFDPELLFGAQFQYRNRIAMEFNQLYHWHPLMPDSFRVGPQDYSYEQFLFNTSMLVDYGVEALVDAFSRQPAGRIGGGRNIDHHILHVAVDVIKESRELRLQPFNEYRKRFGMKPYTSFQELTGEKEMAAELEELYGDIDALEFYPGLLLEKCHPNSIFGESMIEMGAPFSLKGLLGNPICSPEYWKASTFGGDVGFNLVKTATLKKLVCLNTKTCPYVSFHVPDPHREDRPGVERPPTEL
# Description: After 1 hr at 37° C. the reaction was stopped with 1 N HCl and extracted with ethyl ether and evaporated. […] The plates were dried and developed in iodine vapor and with the use of prostaglandin standards the appropriate areas were scraped and counted for ^3 H content. Indometacin was used as a standard at 10^-4 M concentration. Test drugs were used at 10^-6 M.
# [9] = system: Male Sprague Dawley rats; assay: Chronic adjuvant arthritic screen; type: in vivo
# Description: Male Sprague Dawley rats (about 160 g) were injected at the base of the tail with 0.2 ml of solution of killed and dried Mycobacterium butyricum and digitonin in mineral oil (see Waksman et al., J. Immunol., 85, 403 1960). Test drugs were administered intraperitoneally commencing on day 3 through day 20 at 2.5 mg/kg/day. Animals were sacrificed on day 21, and the feet were excised and weighed.
# [10] = system: carrageenan induced edema in mouse foot pads; assay: Anti-inflammatory screen (carrageenan induced foot edema); type: in vivo, mice
# Summary of the method: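 Male CF1 mice (~30 g) given 10 mg/kg i.p. in 0.05% polysorbate 80-water, 3 hr and 30 min before 0.05 ml 2% carrageenan injected into the right hind plantar surface, with saline in the left foot as baseline. Feet excised at the ankle after 3 hr and weight increase measured.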
# [11] = system: Acid phosphatase; assay: Lysosomal free acid phosphatase activity, PMNs; type: cell-based; conditions: 5 μmoles
# Summary of the method: as §2
# [12] = system: Cathepsin; assay: Lysosomal free cathepsin activity, liver homogenate; type: biochemical, rats; conditions: 5 μmoles
# Summary of the method: as §3
# [13] = system: Sprague Dawley rats; assay: Red and white blood cell counts after 3 weeks dosing; type: in vivo; conditions: dosing for three weeks intraperitoneally, rats
# Excerpt: Hematocrits were also obtained.
smiles,measurement,setting,value
"C[N+](C)(C)[BH2-]C#N [Compound V, trimethylamine-cyanoborane]",activity at 5 µmol,"[1]; pH 7.4, read-out: PMNs cAMP Level",245%
same,activation at 5 µmol,[1]; read-out: increase of cyclic adenosine monophosphate levels in PMNs,145%
same,Oxidative Phosphorylation Succinate State 3,[2]; ADP stimulated respiration,51 ± 20 % Control
same,Oxidative Phosphorylation Succinate State 4,[2]; basal respiration,133 ± 20 % Control
same,Writhing Reflex,"[3]; 20 mg/kg intraperitoneally, mice",18 % Control
same,inhibition of the writhing reflex,[3]; text summary of Table II,80%
same,"PMNs % Free Cathespin Activity, pH5",[4],4 ± 2 % Control
same,inhibition of elevated body temperature,[5]; 5 mg/kg,no inhibition
same,inhibition of elevated body temperature,[5]; 10 mg/kg,no inhibition
same,"Liver % Free Acid Phosphatase Activity, pH5",[6],69 ± 4 % Control
same,both states 3 and 4 respiration with α-ketoglutarate,[7],inhibited
same,Oxidative Phosphorylation α Ketoglutarate State 3,[7]; ADP stimulated respiration,42 ± 9 % Control
same,Oxidative Phosphorylation α Ketoglutarate State 4,[7]; basal respiration,85 ± 21 % Control
same,inhibition at 1 µM,[8]; read-out: inhibition of prostaglandin synthesis,> 30%
same,activity at 1 µM,"[8]; 1 h, read-out: Prostaglandin Synthesis",59 ± 6%
same,inhibition in the rat induced arthritic screen,[9]; 1.25 mg/kg/day intraperitoneally,75%
same,inhibition in the rat induced arthritic screen,[9]; 5 mg/kg/day intraperitoneally,100%
same,inhibition in the rat induced arthritic screen,[9]; 10 mg/kg/day intraperitoneally,100%
same,Anti-inflammatory Screen,"[10]; 10 mg/kg × 2 intraperitoneally, mice",42 % Control
same,inhibition of the carrageenan induced edema in mouse foot pads,[10]; text summary of Table II,at least 50%
same,inhibition of free acid phosphatase activity in PMNs,[11],65%
same,"PMNs % Free Acid Phosphatase Activity, pH5","[11]; in vitro, 60 min",35 ± 5 % Control
same,inhibition of free proteolytic cathepsin activity of liver,[12],100%
same,"Liver % Free Cathepsin Activity, pH5","[12]; in vitro, 20 min",0 ± 2 % Control
same,alteration of the red blood or white blood cell count/cu mm,[13],no alteration
